Measurements from patent US12325676B2, “Cationic lipid compound and composition for delivery of nucleic acids and use thereof” (Shenzhen Rhegen Biotechnology Co., Ltd., priority 2022, dated 2025).

How the values were obtained:
[1] = Encapsulation rate of mRNA-loaded lipid nanoparticles (Ribogreen kit); type: physicochemical
Procedure: (§1) Luciferase mRNA was diluted in 10-100 mM citrate buffer at pH 4.0; the lipid components (cationic lipids shown in the present disclosure: DSPC:cholesterol:PEG lipids (DMG-PEG2000)) were dissolved in ethanol at a molar ratio of 50:10:38.5:1.5.
(§2) 3 mL of a mRNA buffer and 1 mL of a lipid solution were loaded into two 5 mL syringes respectively, and the syringes were installed on a microfluidic syringe pump. Chips were connected to the syringes and syringe pump flow rate was set. Clicking the start button of the syringe pump caused injection into the chip at a flow rate ratio of 3:1. Under observation of the color of the product at the exit of the chip, after discarding the first 5 milky white droplets (about 100 μL), the back-end sample was collected into an EP tube. The collected product was placed in a dialysis bag and dialyzed for 6 h (MWCO: 100 KDa) in 10 mM PBS (pH 7.4) intervals. Subsequently, after being concentrated by ultrafiltration to the desired concentration, the lipid nanoparticles were filtered through a 0.22 μm sterile filter and then stored at 4° C.
(§3) Tests were performed to calculate the encapsulation rate of the products according to the instructions of Ribogreen kit. Particle size and polydispersity index (PDI) detection as well as zeta potential analysis was performed on a Malvern Zetasizer nano instrument using standard assays.

[2] = Particle size, PDI and zeta potential of mRNA-loaded lipid nanoparticles (Malvern Zetasizer nano); type: physicochemical
Procedure: as §1, §2, §3

BALB/c mice [3] = test: In vivo expression of luciferase mRNA delivered by LNP, tail intravenous injection, small animal imaging; details: Table 3, 5 μg mRNA, female BALB/c mice, DLin-MC3-DMA = 100
Procedure: LUC-mRNA-lipid nanoparticles containing 5 μg mRNA (see SEQ ID NO: 1 in the Patent Application Publication CN114380724A for the corresponding nucleotide sequence of LUC-mRNA) were injected via tail intravenous injection in 6-8 week old female BALB/c mice, prepared as in Example 19. 100 μg of D-Luciferin Potassium Salt was injected via tail intravenous injection into the mice at specific time points and assayed using the PerkinElmer Small Animal Imaging System. Fluc is commonly used in mammalian cell cultures to measure gene expression and cell viability, and it emits biological fluorescent light in the presence of the substrate […]. The basic characteristics of the mRNA used include ARCA cap structure, polyA tail length of 120 nt, and complete substitution of pseudouridine.
The effect of delivering luciferase mRNA using more cationic lipids were validated according to the methods of Example 20 and Example 21.

BALB/c mice [4] = test: In vivo expression of luciferase mRNA delivered by LNP, lung nebulization; details: LUC-mRNA LNP, 5 μg mRNA, compared with Lipid M and SM-102
Procedure: LUC-mRNA-lipid nanoparticles containing 5 μg mRNA were administrated via lung nebulization in 6-8 week old BALB/c mice, prepared as in Example 19. 100 μg of D-Luciferin Potassium Salt was injected via tail intravenous injection into the mice at specific time points and assayed using the PerkinElmer Small Animal Imaging System.

BALB/c mice [5] = test: Novel coronavirus mRNA vaccine delivered by LNP, intramuscular immunization, binding antibody titer by ELISA; details: mouse, in vivo
BALB/c mice [6] = test: In vivo EPO protein expression after tail i.v. injection of EPO-mRNA LNP, serum ELISA; details: 6 hours after tail i.v. injection of 20 μg EPO-mRNA-lipid nanoparticles, female Balb/c mice
Procedure: In the example, the effects of in vivo transfection of erythropoietin (EPO) by various cationic liposomes were compared. Nanoparticles were prepared in the same manner as in Example 20, and the nucleotide sequence corresponding to the EPO mRNA used is given in CN114380724B, SEQ ID NO:2. After preparation, 20 μg of EPO-mRNA-lipid nanoparticles were injected via tail intravenous injection in 6-8 week female Balb/c mice. 6 hours later the mice were subjected to blood sampling from the eye frame. After centrifugation to separate the serum, EPO protein expression was determined using ELISA. The basic characteristics of the mRNA used include ARCA cap structure, polyA tail length of 100-120 nt, and complete substitution of pseudouridine.

C57BL6 mice = test: Intratumoral injection of luciferase mRNA LNP, fluorescence of tumor and liver; type: in vivo; details: luciferase mRNA LNP 25 μL/2.5 μg intratumoral, B 16F 10 tumor in C57BL6 mice, imaging after 24 h (FIGS. 6 and 7)
Procedure: Different types of lipid nanoparticles encapsulating luciferase mRNA in were prepared accordance with the preparation of Example 20. Tumors were injected subcutaneously in the right abdomen of 6-8 week female C57BL6 mice at 5×10^5 B 16F 10 cells (from CAS Cell Bank, CSTR:19375.09.3101MOUTCM36)/mouse, and tumor growth was observed and recorded periodically. On the 8th day after tumor inoculation, the length (L, mm) and width (D, mm) of the tumors were measured by using a vernier caliper, and the tumor volume (V) was calculated according to the formula V=(L×D^2)/2. Mice with tumor volume in the range of 80-120 mm^3 were taken and randomly grouped, and intratumorally injected with different types of lipid nanoparticles encapsulating luciferase mRNA at the volume of 25 μL/2.5 μg. Anatomical imaging was performed after 24 h to detect the fluorescence intensity of the mouse liver and tumor (as shown in FIGS. 6 and 7). […] This indicates better in situ tumor expression and lower liver […], which is suitable for encapsulation and delivery of some tumor therapy-related nucleic acid drugs.

[7] = Particle size, PDI and zeta potential of mRNA-loaded lipid nanoparticles (Malvern Zetasizer nano); type: physicochemical; remark: listed apart in the source
[8] = Table 1, Luciferase mRNA LNP, cationic lipid:DSPC:cholesterol:DMG-PEG2000 50:10:38.5:1.5 molar
[9] = Table 3 batch, luciferase mRNA LNP prepared as Example 20
[10] = Table 2 No. 1, Luc mRNA LNP, Compound 35/DMG-PEG2000/DSPC/cholesterol 55/2.5/22/20.5 molar, N/P 5
[11] = Table 2 No. 2, Luc mRNA LNP, Compound 35/DMG-PEG2000/DSPC/cholesterol 45/1.5/22/31.5 molar, N/P 10
[12] = Table 2 No. 3, Luc mRNA LNP, Compound 35/DMG-PEG2000/DSPC/cholesterol 45/2.5/8/44.5 molar, N/P 5
[13] = Table 2 No. 4, Luc mRNA LNP, Compound 35/DMG-PEG2000/DSPC/cholesterol 45/1.5/8/45.5 molar, N/P 10
[14] = Table 2 No. 5, Luc mRNA LNP, Compound 35/DMG-PEG2000/DSPC/cholesterol 50/1.5/15/33.5 molar, N/P 7.5
[15] = Table 2 No. 6, Luc mRNA LNP, Compound 35/DMG-PEG2000/DSPC/cholesterol 55/1.5/15/28.5 molar, N/P 10
[16] = Table 2 No. 7, Luc mRNA LNP, Compound 35/DMG-PEG2000/DOPE/cholesterol 55/2.5/22/20.5 molar, N/P 5
[17] = Table 2 No. 8, Luc mRNA LNP, Compound 35/DMG-PEG2000/DOPE/cholesterol 45/1.5/22/31.5 molar, N/P 10
[18] = Table 2 No. 9, Luc mRNA LNP, Compound 35/DMG-PEG2000/DOPE/cholesterol 45/2.5/8/44.5 molar, N/P 5
[19] = Table 2 No. 10, Luc mRNA LNP, Compound 35/DMG-PEG2000/DOPE/cholesterol 45/1.5/8/45.5 molar, N/P 10
[20] = Table 2 No. 11, Luc mRNA LNP, Compound 35/DMG-PEG2000/DOPE/cholesterol 50/1.5/15/33.5 molar, N/P 7.5
[21] = Table 2 No. 12, Luc mRNA LNP, Compound 35/DMG-PEG2000/DOPE/cholesterol 55/1.5/15/28.5 molar, N/P 10
[22] = Table 4 batch, EPO mRNA LNP prepared as Example 20

Structure (SMILES): CCCCCCCCSCC(C)C(=O)OCCCCCN(CCO)CCCCCCCC(=O)OC(CCCCCCCC)CCCCCCCC (stereo not drawn) [Compound 35]
- Encapsulation rate (%) [1, 8]: 90.4%
- Encapsulation rate (%) [1, 9]: 96.2%
- PDI [2, 8]: 0.11
- Particle size (nm) [2, 8]: 104.5 nm
- Zeta potential (mV) [2, 8]: −2.10 mV
- PDI [2, 9]: 0.14
- Particle size (nm) [2, 9]: 80.4 nm
- relative fluorescence intensity (%) (BALB/c mice [3]): 962 ± 78%
- fluorescent levels of mRNA expression (FIG. 2) (BALB/c mice [4]): superior to Lipid M and SM-102
- binding antibody titer (BALB/c mice [5]): 1.4 million
- EPO concentration (BALB/c mice [6]): 5.73e+07 pg/mL
- brightness (fluorescence intensity) at the tumor (C57BL6 mice): higher brightness at the tumor
- brightness (fluorescence intensity) in the liver (C57BL6 mice): lower brightness in the liver
- PDI [7, 10]: 0.193
- Particle size (nm) [7, 10]: 100.5 nm
- PDI [7, 11]: 0.121
- Particle size (nm) [7, 11]: 98.13 nm
- PDI [7, 12]: 0.138
- Particle size (nm) [7, 12]: 70.02 nm
- PDI [7, 13]: 0.121
- Particle size (nm) [7, 13]: 98.19 nm
- PDI [7, 14]: 0.051
- Particle size (nm) [7, 14]: 85.09 nm
- PDI [7, 15]: 0.122
- Particle size (nm) [7, 15]: 93.83 nm
- PDI [7, 16]: 0.169
- Particle size (nm) [7, 16]: 145.0 nm
- PDI [7, 17]: 0.205
- Particle size (nm) [7, 17]: 114.9 nm
- PDI [7, 18]: 0.173
- Particle size (nm) [7, 18]: 92.41 nm
- PDI [7, 19]: 0.233
- Particle size (nm) [7, 19]: 113.7 nm
- PDI [7, 20]: 0.155
- Particle size (nm) [7, 20]: 140.2 nm
- PDI [7, 21]: 0.190
- Particle size (nm) [7, 21]: 129.1 nm
- PDI [7, 22]: 0.12
- Particle size (nm) [7, 22]: 79.1 nm
